From ChEMBL document CHEMBL5055624, “Structural Determinants for the Mode of Action of Imidazopyridine DS2 at δ-Containing γ-Aminobutyric Acid Type A Receptors” (J Med Chem, 2021)

How the values were obtained:
[1] = target: Gamma-aminobutyric acid receptor subunit alpha-4/beta-1/delta (Homo sapiens, UniProt O14764+P18505+P48169); assay: Positive allosteric modulation of human recombinant alpha4beta1delta GABAA receptor expressed in delta-HEK cells assessed as potentiation of GABA-induced response in presence of GABA EC20 by FMP assay; type: cell-based, HEK293
[2] = tested on: GABAA receptor alpha4beta1delta (Homo sapiens); assay: Positive allosteric modulation of human recombinant alpha4beta1delta GABAA receptor expressed in HEK293 cells assessed as GABA-induced response in presence of GABA EC20 by FMP assay
[3] = Solubility of compound; type: physicochemical

Chain of Gamma-aminobutyric acid receptor subunit alpha-4/beta-1/delta (P48169 whole entry): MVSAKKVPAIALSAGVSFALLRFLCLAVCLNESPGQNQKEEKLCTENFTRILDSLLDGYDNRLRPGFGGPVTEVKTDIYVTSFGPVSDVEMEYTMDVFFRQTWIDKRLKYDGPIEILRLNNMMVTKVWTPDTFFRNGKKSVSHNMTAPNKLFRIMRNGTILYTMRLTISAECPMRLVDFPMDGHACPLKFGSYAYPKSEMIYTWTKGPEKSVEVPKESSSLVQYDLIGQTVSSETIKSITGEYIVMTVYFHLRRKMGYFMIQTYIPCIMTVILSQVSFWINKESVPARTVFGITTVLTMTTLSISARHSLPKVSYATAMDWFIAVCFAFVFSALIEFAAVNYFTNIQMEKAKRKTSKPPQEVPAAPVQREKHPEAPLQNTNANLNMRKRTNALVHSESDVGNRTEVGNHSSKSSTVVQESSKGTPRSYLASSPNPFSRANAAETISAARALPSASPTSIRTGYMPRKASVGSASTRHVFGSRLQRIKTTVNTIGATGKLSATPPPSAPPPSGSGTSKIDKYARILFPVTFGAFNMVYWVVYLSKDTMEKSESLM
Chain of Gamma-aminobutyric acid receptor subunit alpha-4/beta-1/delta (O14764 whole entry): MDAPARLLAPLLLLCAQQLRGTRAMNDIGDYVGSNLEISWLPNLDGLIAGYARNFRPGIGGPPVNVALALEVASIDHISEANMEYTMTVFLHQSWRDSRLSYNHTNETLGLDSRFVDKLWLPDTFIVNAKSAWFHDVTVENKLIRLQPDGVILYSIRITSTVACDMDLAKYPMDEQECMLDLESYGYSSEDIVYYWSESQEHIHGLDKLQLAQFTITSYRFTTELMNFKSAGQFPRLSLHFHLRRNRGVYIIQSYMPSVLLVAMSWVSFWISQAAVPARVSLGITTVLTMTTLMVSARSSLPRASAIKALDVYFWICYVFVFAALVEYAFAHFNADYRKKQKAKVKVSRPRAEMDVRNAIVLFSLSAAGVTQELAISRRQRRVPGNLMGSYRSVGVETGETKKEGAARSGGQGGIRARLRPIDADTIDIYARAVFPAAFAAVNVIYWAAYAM
Chain of Gamma-aminobutyric acid receptor subunit alpha-4/beta-1/delta (P18505 whole entry): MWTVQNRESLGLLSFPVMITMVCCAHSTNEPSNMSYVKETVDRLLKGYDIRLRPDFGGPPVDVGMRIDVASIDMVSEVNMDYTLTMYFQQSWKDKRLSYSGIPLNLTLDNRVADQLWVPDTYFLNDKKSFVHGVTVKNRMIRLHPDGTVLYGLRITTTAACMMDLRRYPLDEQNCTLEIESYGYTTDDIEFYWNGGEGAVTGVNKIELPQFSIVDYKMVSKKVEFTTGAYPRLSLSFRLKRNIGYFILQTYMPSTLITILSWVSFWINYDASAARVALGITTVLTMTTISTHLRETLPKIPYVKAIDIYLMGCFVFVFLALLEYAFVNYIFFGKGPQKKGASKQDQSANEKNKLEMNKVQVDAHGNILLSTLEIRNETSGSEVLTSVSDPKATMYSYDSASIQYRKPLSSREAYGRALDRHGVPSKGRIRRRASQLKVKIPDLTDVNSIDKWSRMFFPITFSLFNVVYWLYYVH

Row | Compound | EC50 [1] [nM] | EC50 [2] [nM] | solubility [3]
1 | O=C(Nc1c(-c2cccs2)nc2ccccn12)c1ccc(Cl)cc1 | 980 | 977 | 
2 | O=C(Nc1c(-c2cccs2)nc2ccc(F)cn12)c1ccc(Cl)cc1 | 1920 | 1910 | 
3 | O=C(Nc1c(-c2cccs2)nc2ccc(Br)cn12)c1ccc(Cl)cc1 | 60 | 60.3 | 
4 | Cc1ccc2nc(-c3cccs3)c(NC(=O)c3ccc(Cl)cc3)n2c1 | 160 | 162 | 
5 | Clc1ccc(-c2noc(-c3c(-c4ccccc4)nc4ccccn34)n2)cc1 |  |  | Insoluble
6 | O=C(Nc1c(-c2cccs2)nc2ccc(Cl)cn12)c1ccc(Cl)cc1 | 140 | 145 | 
7 | O=C(Nc1c(-c2cccs2)nc2ccc(C(F)(F)F)cn12)c1ccc(Cl)cc1 | 1100 | 1100 | 
